{"source": "patent US10940139B2", "about": "“Compounds that interact with the Ras superfamily for the treatment of cancers, inflammatory diseases, rasopathies, and fibrotic disease” (Shy Therapeutics LLC, priority 2017, dated 2021)", "key": {"Rho-A": {"target": "Rho-A (Homo sapiens (Human), UniProt P61586)", "sequence (P61586 whole entry)": "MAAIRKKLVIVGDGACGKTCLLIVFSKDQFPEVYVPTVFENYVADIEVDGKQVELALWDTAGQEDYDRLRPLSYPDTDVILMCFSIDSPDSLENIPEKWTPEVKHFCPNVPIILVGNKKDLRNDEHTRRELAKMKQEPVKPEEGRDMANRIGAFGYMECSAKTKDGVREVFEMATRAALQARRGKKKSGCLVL", "assay": "Rho inhibition assay (labeled GTP)", "format": "binding", "settings": "read-out: Rho-A % Inh."}, "[1]": {"target": "KRas G12D/Q61H double mutant (Homo sapiens (Human), UniProt P01116, G12D/Q61H)", "sequence (P01116-2 other isoform, or with tags, fused parts or gaps G12D/Q61H)": "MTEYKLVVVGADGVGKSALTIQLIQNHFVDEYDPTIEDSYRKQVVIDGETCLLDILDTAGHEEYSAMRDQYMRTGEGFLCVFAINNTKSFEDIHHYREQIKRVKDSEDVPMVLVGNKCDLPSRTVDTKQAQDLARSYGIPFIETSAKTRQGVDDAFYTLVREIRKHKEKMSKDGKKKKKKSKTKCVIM", "assay": "Ras GTP binding domain inhibition assay (labeled GTP)", "settings": "at 20 μM; read-out: KRas G12D Q61H % Inh.", "in_short": "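His-tagged KRas protein (3-10 μg/ml) was captured overnight at 4° C on nickel-coated wells in 50 mM Tris pH 7.5, 1 mM MgCl2, 1 mM DTT. Bound labeled GTP was read by fluorescence after washing.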"}, "Rac-1": {"target": "Rac-1 (Homo sapiens (Human), UniProt P63000)", "assay": "Rac inhibition assay (labeled GTP)", "format": "binding", "settings": "read-out: Rac-1 % Inh."}}, "data": [{"smiles": "Oc1nc(-c2ccccn2)nc2c(-c3ccc(CN4CCOCC4)cc3)csc12", "note": "[drawing 3754]", "values": [{"measurement": "inhibition at 20 µM", "setting": "Rho-A", "value": "25 to 50", "unit": "%"}, {"measurement": "inhibition at 20 µM", "setting": "[1]", "value": "25 to 50", "unit": "%"}, {"measurement": "inhibition at 20 µM", "setting": "Rac-1", "value": "51 to 75", "unit": "%"}]}, {"smiles": "Oc1nc(-c2ccccn2)nc2c(-c3ccc(OC4CCCCC4)cc3)csc12", "note": "[drawing 3759]", "values": [{"measurement": "inhibition at 20 µM", "setting": "Rho-A", "value": "51 to 75", "unit": "%"}, {"measurement": "inhibition at 20 µM", "setting": "[1]", "value": "25 to 50", "unit": "%"}, {"measurement": "inhibition at 20 µM", "setting": "Rac-1", "value": "51 to 75", "unit": "%"}]}, {"smiles": "Nc1nc(-c2ccccn2)nc2c(Br)csc12", "note": "[drawing 3764]", "values": [{"measurement": "inhibition at 20 µM", "setting": "Rho-A", "value": "51 to 75", "unit": "%"}, {"measurement": "inhibition at 20 µM", "setting": "[1]", "value": "25 to 50", "unit": "%"}, {"measurement": "inhibition at 20 µM", "setting": "Rac-1", "value": "51 to 75", "unit": "%"}]}, {"smiles": "Cc1sc2c(N)nc(-c3ccccn3)nc2c1Br", "note": "[drawing 3765]", "values": [{"measurement": "inhibition at 20 µM", "setting": "Rho-A", "value": "25 to 50", "unit": "%"}, {"measurement": "inhibition at 20 µM", "setting": "[1]", "value": "25 to 50", "unit": "%"}, {"measurement": "inhibition at 20 µM", "setting": "Rac-1", "value": "25 to 50", "unit": "%"}]}, {"smiles": "Nc1nc(-c2ccccn2)nc2scc(Br)c12", "note": "[drawing 3766]", "values": [{"measurement": "inhibition at 20 µM", "setting": "Rho-A", "value": "51 to 75", "unit": "%"}, {"measurement": "inhibition at 20 µM", "setting": "[1]", "value": "25 to 50", "unit": "%"}, {"measurement": "inhibition at 20 µM", "setting": "Rac-1", "value": "51 to 75", "unit": "%"}]}, {"smiles": "COC(=O)c1csc2nc(-c3ccccn3)nc(N)c12", "note": "[drawing 3767]", "values": [{"measurement": "inhibition at 20 µM", "setting": "Rho-A", "value": "51 to 75", "unit": "%"}, {"measurement": "inhibition at 20 µM", "setting": "[1]", "value": "25 to 50", "unit": "%"}, {"measurement": "inhibition at 20 µM", "setting": "Rac-1", "value": "51 to 75", "unit": "%"}]}, {"smiles": "COc1nccc(CCNC(=O)c2csc3nc(-c4ccccn4)nc(N4CCOCC4)c23)n1", "note": "[drawing 3769]", "values": [{"measurement": "inhibition at 20 µM", "setting": "Rho-A", "value": "25 to 50", "unit": "%"}, {"measurement": "inhibition at 20 µM", "setting": "[1]", "value": "1 to 25", "unit": "%"}, {"measurement": "inhibition at 20 µM", "setting": "Rac-1", "value": "25 to 50", "unit": "%"}]}, {"smiles": "O=C(NCCc1ccnc(O)n1)c1csc2nc(-c3ccccn3)nc(N3CCOCC3)c12", "note": "[drawing 3770]", "values": [{"measurement": "inhibition at 20 µM", "setting": "Rho-A", "value": "51 to 75", "unit": "%"}, {"measurement": "inhibition at 20 µM", "setting": "[1]", "value": "1 to 25", "unit": "%"}, {"measurement": "inhibition at 20 µM", "setting": "Rac-1", "value": "51 to 75", "unit": "%"}]}, {"smiles": "CCn1nc(C)cc1-c1csc2c(O)nc(-c3ccccn3)nc12", "note": "[drawing 3775]", "values": [{"measurement": "inhibition at 20 µM", "setting": "Rho-A", "value": "76 to 100", "unit": "%"}, {"measurement": "inhibition at 20 µM", "setting": "[1]", "value": "51 to 75", "unit": "%"}, {"measurement": "inhibition at 20 µM", "setting": "Rac-1", "value": "51 to 75", "unit": "%"}]}, {"smiles": "Oc1nc(-c2ccccn2)nc2c(-c3ccnn3-c3ccccn3)csc12", "note": "[drawing 3776]", "values": [{"measurement": "inhibition at 20 µM", "setting": "Rho-A", "value": "25 to 50", "unit": "%"}, {"measurement": "inhibition at 20 µM", "setting": "[1]", "value": "1 to 25", "unit": "%"}, {"measurement": "inhibition at 20 µM", "setting": "Rac-1", "value": "25 to 50", "unit": "%"}]}, {"smiles": "Nc1nc(-c2ccccn2)nc2scc(C(=O)O)c12", "note": "[drawing 3778]", "values": [{"measurement": "inhibition at 20 µM", "setting": "Rho-A", "value": "51 to 75", "unit": "%"}, {"measurement": "inhibition at 20 µM", "setting": "[1]", "value": "25 to 50", "unit": "%"}, {"measurement": "inhibition at 20 µM", "setting": "Rac-1", "value": "51 to 75", "unit": "%"}]}, {"smiles": "COC(=O)c1cc2nc(-c3ccccn3)nc(O)c2s1", "note": "[drawing 3779]", "values": [{"measurement": "inhibition at 20 µM", "setting": "Rho-A", "value": "76 to 100", "unit": "%"}, {"measurement": "inhibition at 20 µM", "setting": "[1]", "value": "51 to 75", "unit": "%"}, {"measurement": "inhibition at 20 µM", "setting": "Rac-1", "value": "51 to 75", "unit": "%"}]}, {"smiles": "Oc1nc(-c2ccccn2)nc2c(-c3ccc(Cl)c(Cl)c3)csc12", "note": "[drawing 3781]", "values": [{"measurement": "inhibition at 20 µM", "setting": "Rho-A", "value": "51 to 75", "unit": "%"}, {"measurement": "inhibition at 20 µM", "setting": "[1]", "value": "25 to 50", "unit": "%"}, {"measurement": "inhibition at 20 µM", "setting": "Rac-1", "value": "25 to 50", "unit": "%"}]}, {"smiles": "Oc1nc(-c2ccccn2)nc2c(-c3cncc(F)c3)csc12", "note": "[drawing 3782]", "values": [{"measurement": "inhibition at 20 µM", "setting": "Rho-A", "value": "1 to 25", "unit": "%"}, {"measurement": "inhibition at 20 µM", "setting": "[1]", "value": "1 to 25", "unit": "%"}, {"measurement": "inhibition at 20 µM", "setting": "Rac-1", "value": "1 to 25", "unit": "%"}]}, {"smiles": "Cc1cncc(-c2csc3c(O)nc(-c4ccccn4)nc23)c1", "note": "[drawing 3785]", "values": [{"measurement": "inhibition at 20 µM", "setting": "Rho-A", "value": "25 to 50", "unit": "%"}, {"measurement": "inhibition at 20 µM", "setting": "[1]", "value": "25 to 50", "unit": "%"}, {"measurement": "inhibition at 20 µM", "setting": "Rac-1", "value": "51 to 75", "unit": "%"}]}, {"smiles": "COc1cnc(C2CCCN2)nc1O", "note": "(stereo not drawn) [drawing 3788]", "values": [{"measurement": "inhibition at 20 µM", "setting": "Rho-A", "value": "1 to 25", "unit": "%"}, {"measurement": "inhibition at 20 µM", "setting": "[1]", "value": 0, "unit": "%"}, {"measurement": "inhibition at 20 µM", "setting": "Rac-1", "value": 0, "unit": "%"}]}, {"smiles": "COC(=O)c1c(C)sc2c(O)nc(-c3ccccn3)nc12", "note": "[drawing 3792]", "values": [{"measurement": "inhibition at 20 µM", "setting": "Rho-A", "value": "76 to 100", "unit": "%"}, {"measurement": "inhibition at 20 µM", "setting": "[1]", "value": "51 to 75", "unit": "%"}, {"measurement": "inhibition at 20 µM", "setting": "Rac-1", "value": "76 to 100", "unit": "%"}]}, {"smiles": "Cc1c(Br)sc2c(O)nc(-c3ccccn3)nc12", "note": "[drawing 3793]", "values": [{"measurement": "inhibition at 20 µM", "setting": "Rho-A", "value": "51 to 75", "unit": "%"}, {"measurement": "inhibition at 20 µM", "setting": "[1]", "value": "25 to 50", "unit": "%"}, {"measurement": "inhibition at 20 µM", "setting": "Rac-1", "value": "51 to 75", "unit": "%"}]}, {"smiles": "COC(=O)c1sc2c(O)nc(-c3ccccn3)nc2c1C", "note": "[drawing 3795]", "values": [{"measurement": "inhibition at 20 µM", "setting": "Rho-A", "value": "51 to 75", "unit": "%"}, {"measurement": "inhibition at 20 µM", "setting": "[1]", "value": "25 to 50", "unit": "%"}, {"measurement": "inhibition at 20 µM", "setting": "Rac-1", "value": "51 to 75", "unit": "%"}]}, {"smiles": "Oc1nc(-c2ccccn2)nc2c3c(sc12)CNC3", "note": "[drawing 3796]", "values": [{"measurement": "inhibition at 20 µM", "setting": "Rho-A", "value": "76 to 100", "unit": "%"}, {"measurement": "inhibition at 20 µM", "setting": "[1]", "value": "51 to 75", "unit": "%"}, {"measurement": "inhibition at 20 µM", "setting": "Rac-1", "value": "76 to 100", "unit": "%"}]}, {"smiles": "COc1nc(-c2ccccn2)nc2c(C3CCCCC3)csc12", "note": "[drawing 3798]", "values": [{"measurement": "inhibition at 20 µM", "setting": "Rho-A", "value": "1 to 25", "unit": "%"}, {"measurement": "inhibition at 20 µM", "setting": "[1]", "value": "1 to 25", "unit": "%"}, {"measurement": "inhibition at 20 µM", "setting": "Rac-1", "value": "1 to 25", "unit": "%"}]}, {"smiles": "COc1nc(-c2ccccn2)nc2c(C3CCC3)csc12", "note": "[drawing 3799]", "values": [{"measurement": "inhibition at 20 µM", "setting": "Rho-A", "value": "76 to 100", "unit": "%"}, {"measurement": "inhibition at 20 µM", "setting": "[1]", "value": "51 to 75", "unit": "%"}, {"measurement": "inhibition at 20 µM", "setting": "Rac-1", "value": "76 to 100", "unit": "%"}]}, {"smiles": "Cc1sc2c(O)nc(-c3ccccn3)nc2c1C(=O)O", "note": "[drawing 3801]", "values": [{"measurement": "inhibition at 20 µM", "setting": "Rho-A", "value": "25 to 50", "unit": "%"}, {"measurement": "inhibition at 20 µM", "setting": "[1]", "value": "25 to 50", "unit": "%"}, {"measurement": "inhibition at 20 µM", "setting": "Rac-1", "value": "1 to 25", "unit": "%"}]}, {"smiles": "Cc1sc2nc(-c3ccccn3)nc(N)c2c1Br", "note": "[drawing 3803]", "values": [{"measurement": "inhibition at 20 µM", "setting": "Rho-A", "value": "51 to 75", "unit": "%"}, {"measurement": "inhibition at 20 µM", "setting": "[1]", "value": "25 to 50", "unit": "%"}, {"measurement": "inhibition at 20 µM", "setting": "Rac-1", "value": "25 to 50", "unit": "%"}]}]}
